Experimental findings from patent publication EP4722219A1 (Gan & Lee Pharmaceuticals Co., Ltd., priority 2023, dated 2024) are described below.

Holding throughout (format): cell-based
The subject of test [1] is MCF-7 cells. In words: Inhibition of cell proliferation in MCF-7 cells (CCK-8). The note with it: Homo sapiens, MCF7, 144 h, MCF-7 cell proliferation, 6 days treatment. The essentials: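 MCF-7 cells, 800 per well in DMEM plus 10% FBS, exposed to graded PROTAC concentrations for 6 days at 37 °C, 5% CO2. Viability by CCK-8; IC50 fitted from inhibition rates.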
Test [2] concerns T-47D cells. Put plainly: Inhibition of cell proliferation in T-47D cells (CCK-8). The note with it: 6 days treatment, CCK-8 cell viability. The gist of the method: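 T-47D cells (3,000/well) in RPMI-1640 with 10% FBS were exposed to a concentration range of PROTAC compounds for 6 days at 37 °C, 5% CO2. Viability read by CCK-8; IC50 fitted from inhibition rate.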
The target in test [3] is T1, ERα (Homo sapiens, UniProt P03372).
T1 sequence (P03372 1-595): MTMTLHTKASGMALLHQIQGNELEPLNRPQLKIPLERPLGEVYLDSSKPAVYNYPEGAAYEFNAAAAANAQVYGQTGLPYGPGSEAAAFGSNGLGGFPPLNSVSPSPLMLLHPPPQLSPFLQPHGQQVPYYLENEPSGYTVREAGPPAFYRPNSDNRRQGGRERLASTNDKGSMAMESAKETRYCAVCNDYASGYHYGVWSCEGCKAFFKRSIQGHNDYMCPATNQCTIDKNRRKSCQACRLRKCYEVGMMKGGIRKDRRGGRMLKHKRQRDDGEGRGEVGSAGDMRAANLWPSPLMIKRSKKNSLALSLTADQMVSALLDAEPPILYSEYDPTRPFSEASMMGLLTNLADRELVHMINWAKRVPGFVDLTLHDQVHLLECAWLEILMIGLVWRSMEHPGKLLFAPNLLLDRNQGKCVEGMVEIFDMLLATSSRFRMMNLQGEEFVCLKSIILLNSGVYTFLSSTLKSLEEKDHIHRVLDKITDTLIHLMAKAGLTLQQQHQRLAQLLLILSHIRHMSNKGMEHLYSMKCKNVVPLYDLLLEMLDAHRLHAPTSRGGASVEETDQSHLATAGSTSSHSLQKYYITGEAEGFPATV
Put plainly: ERα degradation in T-47D cells (Western blot). The note with it: 4 hours. How it is done: (§1) Western blotting: The total protein concentration in the collected cell lysate supernatant was determined using the BCA protein concentration assay kit (enhanced) (P0009, Beyotime). Based on the total protein concentration determined by BCA, the protein concentration was adjusted to 1 µg/µL using RIPA lysis buffer and 5× SDS-PAGE protein loading buffer (MB01015, GenScript). The protein was denatured in a 95°C water bath for 5 minutes. After denaturation, the condensed water on the tube wall was collected by centrifugation and used as the loading sample. 20µL of the loading sample (20 µg of total protein) was added to the sample well of a 12% precast gel (M00669, GenScript). Electrophoresis was performed at 100 V for 20 minutes, followed by switching to 150 V for 40 minutes. After electrophoresis, the proteins from the SDS-PAGE gel were transferred to a PVDF membrane at a constant voltage of 100 V for 60 minutes. After transfer, the PVDF membrane corresponding to the ERα protein and internal reference protein was cut and incubated in 1× QµickBlock blocking buffer (P0252, Beyotime) for 30 minutes at room temperature on a shaker. After blocking, the ERα primary antibody (1:1000, 8644S, CST) was added and incubated overnight at 4°C on a shaker. The PVDF membrane was washed three times with 1× TBST buffer for 5 minutes each. Rabbit IgG (H+L) secondary antibody (1:7500, SA5-35571, Invitrogen) was added and incubated for 1 hour at room temperature on a shaker. The membrane was then washed again three times with 1× TBST buffer for 5 minutes each. Finally, the membrane was imaged using a dual-color infrared laser imaging system (Odyssey DLx, LICOR). Protein maps were analyzed for grayscale value using Image Studio Lite software. The grayscale correction value for each sample was calculated using the formula: grayscale correction value = grayscale value of the target protein / grayscale value of the corresponding internal reference. Then the grayscale correction values of the compound group and the control group were compared to calculate the degradation rate of the compound. Table 4 Degradation rate of ERα by PROTAC compounds of the present invention and positive control in MCF-7 cells (%)
Test Example 5 Degradation of ERα by the PROTAC compounds disclosed in the present invention in T-47D cells
T-47D (ATCC) cells were cultured in PRMI-1640 medium (30-2001, ATCC) containing 10% FBS (10099141C, Gibco) at 37°C and 5% CO2 until they entered the logarithmic growth phase. T-47D cells were seeded at a density of 3×10^5 cells/well in a 6-well plate and incubated at 37°C, 5% CO2 for 24 hours. After cell attachment, 1 µL of compound dimethyl sulfoxide solution (final concentration 0.15-1000 nM) was added and incubated for another 4 hours at 37°C, 5% CO2 incubator. After 4 hours, the culture medium was discarded, and each well was washed once with 1 mL of pre-chilled 1× DPBS. The cells were then lysed with 50 µL of RIPA lysis buffer (P0013B, Beyotime) and 1× protease inhibitor cocktail (P1005, Beyotime). After incubation on ice for 20 minutes, the cells were centrifuged at 14,000 g at 4°C for 30 minutes. The supernatant was carefully collected and analyzed for ERα protein levels by immunoblotting. Table 5 Degradation rate of ERα by PROTAC compounds of the present invention and positive control sample in T-47D cells (%)
(In general: In western blotting, separated proteins are transferred to a membrane and probed.)

Test [4] addresses T1, ERα. In words: ERα degradation in MCF-7 cells (Western blot). The note with it: 4 hours. Also noted: host or cells: MCF-7. How it is done:
Test Example 4 Effect of PROTAC Compounds Disclosed in the Present Invention on ERα Degradation in MCF-7 Cells
MCF-7 (ATCC) cells were cultured in DMEM medium (11995-065, Gibco) containing 10% FBS (10099141C, Gibco) at 37°C and 5% CO2 until they entered the logarithmic growth phase. MCF-7 cells were plated at a density of 3×10^5 cells/well in a 6-well plate and incubated at 37°C, 5% CO2 for 24 hours. After cell attachment, 1µL of compound in dimethyl sulfoxide (final concentration 0.15-1000nM) was added and incubated for another 4 hours at 37°C, 5% CO2 incubator. After 4 hours, the culture medium was discarded, and each well was washed once with 1 mL of pre-chilled 1× DPBS. The cells were then lysed with 50 µL of RIPA lysis buffer (P0013B, Beyotime) and 1× protease inhibitor cocktail (P1005, Beyotime). After incubation on ice for 20 minutes, the cells were centrifuged at 14,000 g at 4°C for 30 minutes. The supernatant was carefully collected and analyzed for ERα protein levels by immunoblotting.
as §1

As usually defined, the IC50 is the midpoint of a concentration-inhibition curve. On to `O=C1CCC(N2Cc3c(ccc4c3OCC43CCC4(CC3)CN(C3CCC5(CC3)CCN(c3ccc([C@@H]6c7ccc(O)cc7CC[C@@H]6c6ccccc6)cc3)CC5)C4)C2=O)C(=O)N1` (stereo partly drawn) [ER-P-9], for which the IC50 in test [1] turned out to be 7.44 nM; in test [2] (Homo sapiens, T47D, 144 h) it was 1.96 nM. In addition, the “Degradation rate of ERα in T-47D cells (%)” value in test [3] (1nM) amounted to 46%; in test [3] (10nM) it was 83%. Moreover, the “Degradation rate of ERα in MCF-7 cells (%)” value in test [4] (1nM) was 30%; in test [4] (10nM), 71%.

For `O=C1CCC(N2Cc3c(ccc4c3OCC43CCC4(CC3)CN(C3CCC5(CC3)CN(c3ccc([C@@H]6c7ccc(O)cc7CC[C@@H]6c6ccccc6)cc3)C5)C4)C2=O)C(=O)N1` (stereo partly drawn) [ER-P-10, 3-(1-(2-(4-((1R,2S)-6-hydroxy-2-phenyl-1,2,3,4-tetrahydronaphthalen-1-yl)phenyl)-2-azaspiro[3.5]nonan-7-yl)-6'-oxo-6',8'-dihydro-2'H,7'H-dipyrazole[azetidine-3,1'-cyclohexane-4',3"-furo[2,3-e]isoindol]-7'-yl)piperidine-2,6-dione], the IC50 in test [1] worked out at 8.53 nM; in test [2] (Homo sapiens, T47D, 144 h), 1.63 nM. Further, the entries for the “Degradation rate of ERα in T-47D cells (%)” value in test [3] (1nM) and in test [3] (10nM) were 51% and 77%, respectively. The “Degradation rate of ERα in MCF-7 cells (%)” value in test [4] (1nM) is recorded as 24%; in test [4] (10nM), 57%.

Turning to `Cn1c(=O)n(C2CCC(=O)NC2=O)c2cc3c(cc21)C1(CCN(C2CCN(c4ccc([C@@H]5c6ccc(O)cc6CC[C@@H]5c5ccccc5)cc4)CC2)CC1)CO3` (stereo partly drawn) [ER-P-11, 3-(1'-(1-(4-((1R,2S)-6-hydroxy-2-phenyl-1,2,3,4-tetrahydronaphthalen-1-yl)phenyl)piperidin-4-yl)-1-methyl-2-oxo-1,2-dihydro-3H,6H-spiro[benzofuro[5,6-d]imidazole-7,4'-piperidin]-3-yl)piperidine-2,6-dione], the IC50 in test [1] was 3540 nM; in test [2] (Homo sapiens, T47D, 144 h), 20.8 nM. Further, the “Degradation rate of ERα in T-47D cells (%)” value in test [3] (1nM) and in test [3] (10nM) was 12% in each case. Further, the “Degradation rate of ERα in MCF-7 cells (%)” value in test [4] (1nM) is listed as -18%; in test [4] (10nM) it was -33%.

Consider `Cn1c(=O)n(C2CCC(=O)NC2=O)c2cc3c(cc21)C1(CCN(C2CC4(CCN(c5ccc([C@@H]6c7ccc(O)cc7CC[C@@H]6c6ccccc6)cc5)CC4)C2)CC1)CO3` (stereo partly drawn) [ER-P-12, 3-(1'-(7-(4-((1R,2S)-6-hydroxy-2-phenyl-1,2,3,4-tetrahydronaphthalen-1-yl)phenyl)-7-azaspiro[3.5]nonan-2-yl)-1-methyl-2-oxo-1,2-dihydro-3H,6H-spiro[benzofuro[5,6-d]imidazole-7,4'-piperidin]-3-yl)piperidine-2,6-dione], for which the IC50 is 25.2 nM in test [1] and 2.4 nM in test [2] (Homo sapiens, T47D, 144 h). The “Degradation rate of ERα in T-47D cells (%)” value in test [3] (1nM) is recorded as 34%; in test [3] (10nM) it was 38%. The “Degradation rate of ERα in MCF-7 cells (%)” value in test [4] (1nM) is -9%; in test [4] (10nM) it was -11%.

With `Cn1c(=O)n(C2CCC(=O)NC2=O)c2ccc3c(c21)OCC31CCN(C2CCN(C(=O)C3CCN(c4ccc([C@@H]5c6ccc(O)cc6CC[C@@H]5c5ccccc5)cc4)CC3)CC2)CC1` (stereo partly drawn) [ER-P-13, 3-(1'-(1-(1-(4-((1R,2S)-6-hydroxy-2-phenyl-1,2,3,4-tetrahydronaphthalen-1-yl)phenyl)piperidine-4-carbonyl)piperidin-4-yl)-1-methyl-2-oxo-1,2-dihydro-3H,7H-spiro[benzofuro[6,7-d]imidazole-6,4'-piperidin]-3-yl)piperidine-2,6-dione], the IC50 came to 18.9 nM in test [1] and 0.47 nM in test [2] (Homo sapiens, T47D, 144 h). The “Degradation rate of ERα in T-47D cells (%)” value in test [3] (1nM) was determined as 79%; in test [3] (10nM) it was 74%. Moreover, the “Degradation rate of ERα in MCF-7 cells (%)” value was 72% in test [4] (1nM) and 85% in test [4] (10nM).

`Cn1c(=O)n(C2CCC(=O)NC2=O)c2cc3c(cc21)C1(CCN(C2CCN(C(=O)C4CCN(c5ccc([C@@H]6c7ccc(O)cc7CC[C@@H]6c6ccccc6)cc5)CC4)CC2)CC1)CO3` (stereo partly drawn) [ER-P-14, 3-(1'-(1-(1-(4-((1R,2S)-6-hydroxy-2-phenyl-1,2,3,4-tetrahydronaphthalen-1-yl)phenyl)piperidine-4-carbonyl)piperidin-4-yl)-1-methyl-2-oxo-1,2-dihydro-3H,6H-spiro[benzofuro[5,6-d]imidazole-7,4'-piperidin]-3-yl)piperidine-2,6-dione]: the IC50 in test [1] turned out to be 34.6 nM; in test [2] (Homo sapiens, T47D, 144 h), 0.81 nM. Further, the figures for the “Degradation rate of ERα in T-47D cells (%)” value in test [3] (1nM) and in test [3] (10nM) were 64% and 61%, respectively. Besides, the figures for the “Degradation rate of ERα in MCF-7 cells (%)” value in test [4] (1nM) and in test [4] (10nM) were 69% and 63%, respectively.

In the case of `Cn1c(=O)n(C2CCC(=O)NC2=O)c2ccc3c(c21)OCC31CCN(C2CC3(CCN(c4ccc([C@@H]5c6ccc(O)cc6CC[C@@H]5c5ccccc5)cc4)CC3)C2)CC1` (stereo partly drawn) [ER-P-15, 3-(1'-(7-(4-((1R,2S)-6-hydroxy-2-phenyl-1,2,3,4-tetrahydronaphthalen-1-yl)phenyl)-7-azaspiro[3.5]nonan-2-yl)-1-methyl-2-oxo-1,2-dihydro-3H,7H-spiro[benzofuro[6,7-d]imidazole-6,4'-piperidin]-3-yl)piperidine-2,6-dione], the results for the IC50 in test [1] and in test [2] were 2980 nM and 0.65 nM, respectively. Further, the “Degradation rate of ERα in T-47D cells (%)” value in test [3] (1nM) came out at 44%; in test [3] (10nM) it was 31%. The entries for the “Degradation rate of ERα in MCF-7 cells (%)” value in test [4] (1nM) and in test [4] (10nM) were 22% and 26%, respectively.
